Patent US11753413B2, “Substituted pyrrolo[2,1-f][1,2,4]triazine compounds as JAK2 V617F inhibitors” (Incyte Corporation, priority 2020, dated 2023)
pIC50: −log10 of the molar value.

Tests used:
[1] = target: T1, catalytic domain (JH1) of human JAK2 (Homo sapiens, UniProt O60674); experiment: JAK2 LanthaScreen JH1 Binding Assay; set-up: JH1, amino acids 826-1132; FLAG (N); purchased Carna Biosciences 08-445-20N; host or cells: baculovirus expression system; conditions: read-out: JH1 BIND
Protocol: Example A. JAK2 LanthaScreen JH1 Binding Assay
JAK2 JH1 binding assay utilizes catalytic domain (JH1, amino acids 826-1132) of human JAK2 expressed as N-terminal FLAG-tagged, biotinylated protein in a baculovirus expression system (Carna Biosciences, Product #08-445-20N). The assay was conducted in black 384-well polystyrene plates in a final reaction volume of 20 μL. JAK2 JH1 (1.5 nM) was incubated with compounds (100 nL serially diluted in DMSO) in the presence of 50 nM fluorescent JAK2-JH1 tracer and 0.5 nM Streptavidin-Tb cryptate (Cisbio Part #610SATLB) in assay buffer (50 mM Tris, pH=7.5, 10 mM MgCl2, 0.01% Brij-35, 0.1% BSA, 1 mM EGTA, 5% Glycerol and 5 mM DTT). Non-specific binding was accessed in the presence of 2 mM ATP. After incubation for 2 hours at 25° C., LanthaScreen signals were read on a PHERAstar FS plate reader (BMG LABTECH). Data was analyzed with IDBS XLfit and GraphPad Prism 5.0 software using a four parameter dose response curve to determine IC50 for each compound.
Target sequence in this assay (O60674 826-1132): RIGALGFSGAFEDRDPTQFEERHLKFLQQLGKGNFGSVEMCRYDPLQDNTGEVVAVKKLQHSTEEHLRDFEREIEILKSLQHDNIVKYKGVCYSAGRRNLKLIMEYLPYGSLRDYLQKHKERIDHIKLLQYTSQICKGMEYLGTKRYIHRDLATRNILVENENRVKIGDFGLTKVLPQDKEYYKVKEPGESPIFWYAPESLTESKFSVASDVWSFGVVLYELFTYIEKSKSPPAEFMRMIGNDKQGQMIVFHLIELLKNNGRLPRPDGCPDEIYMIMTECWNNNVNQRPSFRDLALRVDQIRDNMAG

[2] = target: T2, pseudo-kinase domain (JH2) of human Wild Type JAK2 (Homo sapiens, UniProt O60674, F794H/W659A/W777A); experiment: JAK2 LanthaScreen JH2-WT Binding Assay; conditions: read-out: JH2 BIND WT
T2 construct: JH2, amino-acids 536-812 with 3 surface mutations; His (C); purchased BPS Bioscience 79463; host or cells: baculovirus expression system
Protocol: Example B. JAK2 LanthaScreen JH2-WT Binding Assay
(§1) JAK2 JH2-WT binding assay utilizes pseudo-kinase domain (JH2, amino-acids 536-812 with 3 surface mutations W659A, W777A, F794H) of human Wild Type JAK2 expressed as C-terminal His-Avi-tagged, biotinylated protein in a baculovirus expression system (BPS Bioscience, Catalog #79463). The assay was conducted in black 384-well polystyrene plates in a final reaction volume of 20 μL. JAK2 JH2-WT (0.145 nM) was incubated with compounds (100 nL serially diluted in DMSO) in the presence of 50 nM Fluorescent JAK2-JH2 Tracer (MedChem Express Catalog #HY-102055) and 0.25 nM Streptavidin-Tb cryptate (Cisbio Part #610SATLB) in assay buffer (50 mM Tris, pH=7.5, 10 mM MgCl2, 0.01% Brij-35, 0.1% BSA, 1 mM EGTA, 5% Glycerol and 5 mM DTT). Non-specific binding was accessed in the presence of 2 mM ATP. After incubation for 1 hour at 25° C., LanthaScreen signals were read on a PHERAstar FS plate reader (BMG LABTECH). Data was analyzed with IDBS XLfit and GraphPad Prism 5.0 software using a four parameter dose response curve to determine IC50 for each compound.

[3] = target: T1, catalytic domain (JH1) of human JAK2; experiment: JAK2 HTRF Enzyme Activity Assay; format: biochemical; set-up: JH1, amino acids 808-1132; His (N); purchased BPS Bioscience 40450; host or cells: baculovirus expression system; conditions: ATP 30 μM or 1 mM (not given), read-out: ENZ
Protocol: Example D. JAK2 HTRF Enzyme Activity Assay
JAK2 enzyme activity assays utilize catalytic domain (JH1, amino acids 808-1132) of human JAK2 expressed as N-terminal His-tagged protein in a baculovirus expression system (BPS Bioscience, Catalog #40450). The assays was conducted in black 384-well polystyrene plates in a final reaction volume of 20 μL. JAK2 (0.015 nM) was incubated with compounds (100 nL serially diluted in DMSO) in the presence of ATP (30 μM or 1 mM) and 500 nM Biotin-labeled EQEDEPEGDYFEWLE (SEQ ID NO.: 1) peptide (BioSource International, custom synthesis) in assay buffer (50 mM Tris, pH=7.5, 10 mM MgC2, 0.01% Brij-35, 0.1% BSA, 1 mM EGTA, 5% Glycerol and 5 mM DTT) for 60 minutes at 25° C. The reactions were stopped by the addition of 10 μL of detection buffer (50 mM Tris, pH 7.8, 0.5 mg/mL BSA, 150 mM NaCl), supplemented with EDTA, LANCE Eu-W1024 anti-phosphotyrosine (PY20), (PerkinElmer, Catalog #AD0067) and Streptavidin SureLight APC (PerkinElmer Catalog #CR130-100), for a final concentration of 15 mM, 1.5 nM and 75 nM, respectively. HTRF signals were read after 30 minutes incubation at room temperature on a PHERAstar FS plate reader (BMG LABTECH). Data was analyzed with IDBS XLfit and GraphPad Prism 5.0 software using a four parameter dose response curve to determine IC50 for each compound.
Target sequence in this assay (O60674 808-1132): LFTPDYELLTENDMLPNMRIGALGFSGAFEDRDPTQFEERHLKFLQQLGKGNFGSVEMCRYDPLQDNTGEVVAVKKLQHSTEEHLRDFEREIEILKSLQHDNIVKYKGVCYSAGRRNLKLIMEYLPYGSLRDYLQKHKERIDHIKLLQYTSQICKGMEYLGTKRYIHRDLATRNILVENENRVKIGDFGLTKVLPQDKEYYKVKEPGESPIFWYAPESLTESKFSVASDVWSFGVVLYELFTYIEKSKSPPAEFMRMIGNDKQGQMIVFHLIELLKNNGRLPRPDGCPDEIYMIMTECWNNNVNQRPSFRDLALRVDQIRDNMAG

[4] = target: T3, pseudo-kinase domain (JH2) of human V617F mutant JAK2 (Homo sapiens, UniProt O60674, F794H/V617F/W659A/W777A); experiment: JAK2 LanthaScreen JH2-V617F Binding Assay; conditions: read-out: JH2 BIND V617F
T3 construct: JH2, amino-acids 536-812 with 3 surface mutations; His (C); purchased BPS Bioscience 79498; host or cells: baculovirus expression system
Protocol: Example C. JAK2 LanthaScreen JH2-V617F Binding Assay
as §1, with “JH2-V617F” for “JH2-WT”, “V617F mutant” for “Wild Type”, “#79498).” for “#79463).”, “JH2-V617F (0.26” for “JH2-WT (0.145”

T2 sequence (O60674 536-812 W659A/W777A/F794H): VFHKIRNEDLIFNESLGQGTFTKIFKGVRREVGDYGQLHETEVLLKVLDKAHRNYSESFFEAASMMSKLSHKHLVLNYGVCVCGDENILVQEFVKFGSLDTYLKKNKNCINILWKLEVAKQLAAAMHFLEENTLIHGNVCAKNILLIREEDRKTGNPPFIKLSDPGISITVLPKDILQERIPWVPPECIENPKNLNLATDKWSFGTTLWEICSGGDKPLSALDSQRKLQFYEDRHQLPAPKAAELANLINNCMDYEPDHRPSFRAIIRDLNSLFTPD
T3 sequence (O60674 536-812 V617F/W659A/W777A/F794H): as the sequence (O60674 536-812 W659A/W777A/F794H) above, with V82F counted along it

| SMILES | pIC50 [1] | pIC50 [2] | pIC50 [3] | pIC50 [4] |
| --- | --- | --- | --- | --- |
| COc1c(Nc2nc(NC(=O)C3CC3)nn3ccc(-c4cnn(Cc5ccc(NS(=O)(=O)C6CC6)cc5)c4)c23)cccc1C(F)(F)F [Example 2, N-(5-(1-(4-(Cyclopropanesulfonamido)benzyl)-1H-pyrazol-4-yl)-4-((2-methoxy-3-(trifluoromethyl)phenyl)amino)pyrrolo[2,1-f][1,2,4]triazin-2-yl)cyclopropanecarboxamide] | < 5.00 | ≥ 7.00 | < 5.00 | ≥ 7.00 |
| CCS(=O)(=O)Nc1ccc(Cn2cc(-c3ccn4nc(NC(=O)C5CC5)nc(Nc5cccc(-c6ncn(C)n6)c5OC)c34)cn2)cc1 [Example 3, N-(5-(1-(4-(Ethylsulfonamido)benzyl)-1H-pyrazol-4-yl)-4-((2-methoxy-3-(1-methyl-1H-1,2,4-triazol-3-yl)phenyl)amino)pyrrolo[2,1-f][1,2,4]triazin-2-yl)cyclopropanecarboxamide] | < 5.00 | ≥ 7.00 | < 5.00 | 6.30 to 7.00 |
| COc1c(Nc2nc(NC(=O)C3CC3)nn3ccc(-c4cnn(Cc5ccc(NS(C)(=O)=O)cc5)c4)c23)cccc1-c1ncn(C)n1 [Example 4, N-(4-((2-Methoxy-3-(1-methyl-1H-1,2,4-triazol-3-yl)phenyl)amino)-5-(1-(4-(methylsulfonamido)benzyl)-1H-pyrazol-4-yl)pyrrolo[2,1-f][1,2,4]triazin-2-yl)cyclopropanecarboxamide] | < 5.00 | 6.30 to 7.00 | < 5.00 | 6.30 to 7.00 |
| COc1c(Nc2nc(NC(=O)C3CC3)nn3ccc(-c4cnn(Cc5cccnc5)c4)c23)cccc1C(F)(F)F [Example 5, N-(4-((2-Methoxy-3-(trifluoromethyl)phenyl)amino)-5-(1-(pyridin-3-ylmethyl)-1H-pyrazol-4-yl)pyrrolo[2,1-f][1,2,4]triazin-2-yl)cyclopropanecarboxamide] | < 5.00 | 5.00 to 6.00 | < 5.00 | 5.00 to 6.00 |
| COc1c(Nc2nc(NC(=O)C3CC3)nn3ccc(-c4cnn(Cc5ccc(C(=O)O)cc5)c4)c23)cccc1C(F)(F)F [Example 6, 4-((4-(2-(Cyclopropanecarboxamido)-4-((2-methoxy-3-(trifluoromethyl)phenyl)amino)pyrrolo[2,1-f][1,2,4]triazin-5-yl)-1H-pyrazol-1-yl)methyl)benzoic acid] | 5.00 to 6.00 | ≥ 7.00 | 5.00 to 6.00 | ≥ 7.00 |
| CCS(=O)(=O)Nc1ccc(Cn2cc(-c3ccn4nc(NC(=O)C5CC5)nc(Nc5cccc(C(F)(F)F)c5OC)c34)cn2)cc1 [Example 1, N-(5-(1-(4-(Ethylsulfonamido)benzyl)-1H-pyrazol-4-yl)-4-((2-methoxy-3-(trifluoromethyl)phenyl)amino)pyrrolo[2,1-f][1,2,4]triazin-2-yl)cyclopropanecarboxamide] | < 5.00 | ≥ 7.00 | < 5.00 | ≥ 7.00 |
